# “And” between values parts separate entries of the source, which are not always exact repeats. Equal values may be shown once. Inconclusive results and toxic doses are left out.
# Tested on: P388 leukemia ip, CD2F1 mice, survival T/C
# Assay: NCI In Vivo Anticancer Drug Screen. Data for tumor model P388 Leukemia (intraperitoneal) in CD2F1 (CDF1) mice
# Conditions: endpoint: median survival time, higher = longer survival
# Outline: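 Mice carrying the transplanted tumor received test compound or vehicle. Survival was recorded in each group, and the value is the treated-group measurement divided by that of the vehicle-treated control group.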
# [1] = dose: 12.5 mg/kg/injection, schedule: Q01DX009 (ip), vehicle: saline with Tween-80
# [2] = dose: 25.0 mg/kg/injection, schedule: Q01DX009 (ip), vehicle: saline with Tween-80
# [3] = dose: 50.0 mg/kg/injection, schedule: Q01DX009 (ip), vehicle: saline with Tween-80
# [4] = dose: 100.0 mg/kg/injection, schedule: Q01DX001 (ip), vehicle: saline with Tween-80
# [5] = dose: 200.0 mg/kg/injection, schedule: Q01DX001 (ip), vehicle: saline with Tween-80
# [6] = dose: 400.0 mg/kg/injection, schedule: Q01DX001 (ip), vehicle: saline with Tween-80
# [7] = dose: 100.0 mg/kg/injection, schedule: Q04DX003 (ip), vehicle: saline
# [8] = dose: 200.0 mg/kg/injection, schedule: Q04DX003 (ip), vehicle: saline
# [9] = dose: 50.0 mg/kg/injection, schedule: Q01DX009 (ip), vehicle: Klucel (hydroxypropylcellulose) (HPC)
# [10] = dose: 100.0 mg/kg/injection, schedule: Q01DX009 (ip), vehicle: Klucel (hydroxypropylcellulose) (HPC)
structure (smiles),measurement,setting,value
O=C(NC(=S)c1ccccc1)Nc1ccc(Cl)c(Cl)c1,T/C,"dose: 8.0 mg/kg/injection, schedule: Q01DX009 (ip), vehicle: saline with Tween-80",100 % of control
same,T/C,"dose: 16.0 mg/kg/injection, schedule: Q01DX009 (ip), vehicle: saline with Tween-80",99 % of control
same,T/C,"dose: 32.0 mg/kg/injection, schedule: Q01DX009 (ip), vehicle: saline with Tween-80",87 % of control
O=c1n(CC2CC3(Cl)C(Cl)=C(Cl)C2(Cl)C3(Cl)Cl)c(=O)n(CC2CC3(Cl)C(Cl)=C(Cl)C2(Cl)C3(Cl)Cl)c(=O)n1CC1CC2(Cl)C(Cl)=C(Cl)C1(Cl)C2(Cl)Cl (stereo not given),T/C,[1],101 % of control
same,T/C,[2],95 % of control
same,T/C,[3],87 % of control and 95 % of control
same,T/C,"dose: 200.0 mg/kg/injection, schedule: Q01DX009 (ip), vehicle: saline with Tween-80",97 % of control
O=NNc1ccc(S(=O)(=O)c2ccccc2)cn1,T/C,"dose: 3.12 mg/kg/injection, schedule: Q01DX009 (ip), vehicle: sodium bicarbonate",98 % of control
same,T/C,"dose: 6.25 mg/kg/injection, schedule: Q01DX009 (ip), vehicle: sodium bicarbonate",98 % of control
same,T/C,"dose: 12.5 mg/kg/injection, schedule: Q01DX009 (ip), vehicle: sodium bicarbonate",94 % of control and 96 % of control
same,T/C,"dose: 25.0 mg/kg/injection, schedule: Q01DX009 (ip), vehicle: sodium bicarbonate",100 % of control and 104 % of control
same,T/C,"dose: 50.0 mg/kg/injection, schedule: Q01DX009 (ip), vehicle: sodium bicarbonate",109 % of control
same,T/C,"dose: 100.0 mg/kg/injection, schedule: Q01DX009 (ip), vehicle: sodium bicarbonate",160 % of control
CC1=CO/C(=C\[Si](C)(C)C)OC1c1ccccc1 (stereo not given),T/C,[4],104 % of control
same,T/C,[5],108 % of control
same,T/C,[6],103 % of control
CN1CCc2nc(N)nc(-c3nc(N)nc4c3CN(C)CC4)c2C1,T/C,"dose: 60.0 mg/kg/injection, schedule: Q01DX005 (ip), vehicle: saline",100 % of control
same,T/C,"dose: 120.0 mg/kg/injection, schedule: Q01DX005 (ip), vehicle: saline",104 % of control
same,T/C,"dose: 240.0 mg/kg/injection, schedule: Q01DX005 (ip), vehicle: saline",106 % of control
CN(CCCCN(C)CCOS(C)(=O)=O)CCOS(C)(=O)=O,T/C,"dose: 0.05 mg/kg/injection, schedule: Q01DX009 (ip), vehicle: saline",157 % of control
same,T/C,"dose: 0.1 mg/kg/injection, schedule: Q01DX009 (ip), vehicle: saline",178 % of control
same,T/C,"dose: 0.3 mg/kg/injection, schedule: Q01DX009 (ip), vehicle: saline",156 % of control
same,T/C,"dose: 0.6 mg/kg/injection, schedule: Q01DX009 (ip), vehicle: saline",156 % of control
same,T/C,"dose: 0.8 mg/kg/injection, schedule: Q04DX003 (ip), vehicle: saline",168 % of control
same,T/C,"dose: 1.2 mg/kg/injection, schedule: Q04DX003 (ip), vehicle: saline",172 % of control
same,T/C,"dose: 1.25 mg/kg/injection, schedule: Q01DX009 (ip), vehicle: saline",230 % of control
same,T/C,"dose: 1.25 mg/kg/injection, schedule: Q04DX003 (ip), vehicle: saline with Tween-80",180 % of control
same,T/C,"dose: 1.8 mg/kg/injection, schedule: Q04DX003 (ip), vehicle: saline",181 % of control
same,T/C,"dose: 2.5 mg/kg/injection, schedule: Q04DX003 (ip), vehicle: saline with Tween-80",176 % of control
same,T/C,"dose: 5.0 mg/kg/injection, schedule: Q04DX003 (ip), vehicle: saline with Tween-80",200 % of control
same,T/C,"dose: 5.0 mg/kg/injection, schedule: Q04DX003 (ip), vehicle: saline",204 % of control
same,T/C,"dose: 10.0 mg/kg/injection, schedule: Q04DX003 (ip), vehicle: saline",86 % of control
CCCC(CCC)=NCCN=C(CCC)CCC,T/C,"dose: 50.0 mg/kg/injection, schedule: Q01DX009 (ip), vehicle: saline",100 % of control
same,T/C,"dose: 50.0 mg/kg/injection, schedule: Q04DX003 (ip), vehicle: saline",95 % of control
same,T/C,"dose: 100.0 mg/kg/injection, schedule: Q01DX009 (ip), vehicle: saline",100 % of control
same,T/C,[7],95 % of control
same,T/C,"dose: 200.0 mg/kg/injection, schedule: Q01DX009 (ip), vehicle: saline",104 % of control
same,T/C,[8],91 % of control
CC1CC=CC(=O)CC1 (stereo not given),T/C,[9],112 % of control
same,T/C,[10],117 % of control
Cc1ccc(S(=O)(=O)N/N=C2/C=CC3(CC2)CC2C=CC3C2)cc1 (stereo not given),T/C,"dose: 50.0 mg/kg/injection, schedule: Q01DX001 (ip), vehicle: Klucel (hydroxypropylcellulose) (HPC)",91 % of control
same,T/C,"dose: 100.0 mg/kg/injection, schedule: Q01DX001 (ip), vehicle: Klucel (hydroxypropylcellulose) (HPC)",89 % of control
same,T/C,"dose: 200.0 mg/kg/injection, schedule: Q01DX001 (ip), vehicle: Klucel (hydroxypropylcellulose) (HPC)",101 % of control
Cc1nn(CCO)c(=O)c(C#N)c1C,T/C,"dose: 25.0 mg/kg/injection, schedule: Q04DX002 (ip), vehicle: distilled water + Tween-80",103 % of control
same,T/C,"dose: 50.0 mg/kg/injection, schedule: Q04DX002 (ip), vehicle: distilled water + Tween-80",108 % of control
same,T/C,"dose: 100.0 mg/kg/injection, schedule: Q04DX002 (ip), vehicle: distilled water + Tween-80",101 % of control
same,T/C,"dose: 200.0 mg/kg/injection, schedule: Q04DX002 (ip), vehicle: distilled water + Tween-80",94 % of control
O=C(/C=C\c1cccc2ccccc12)c1ccccn1,T/C,[4],106 % of control
same,T/C,[5],112 % of control
same,T/C,[6],112 % of control
N=c1ccc(=Nc2ccc(N)c3c(O)c4ccccc4c(O)c23)c2c(=O)c3ccccc3c(=O)c1=2,T/C,"dose: 50.0 mg/kg/injection, schedule: Q01DX005 (ip), vehicle: saline with Tween-80",103 % of control
same,T/C,"dose: 100.0 mg/kg/injection, schedule: Q01DX005 (ip), vehicle: saline with Tween-80",94 % of control
same,T/C,"dose: 200.0 mg/kg/injection, schedule: Q01DX005 (ip), vehicle: saline with Tween-80",92 % of control
CN1C(c2ccccc2Cl)C2CCCC(C2O)C1c1ccccc1Cl (stereo not given),T/C,[7],100 % of control
same,T/C,[8],100 % of control
same,T/C,"dose: 400.0 mg/kg/injection, schedule: Q04DX003 (ip), vehicle: saline",95 % of control
CC1(C)OCC(C2OC(C)(C)OC2/C=C2/CC(=O)NC2=O)O1 (stereo not given),T/C,[9],100 % of control and 107 % of control
same,T/C,[10],100 % of control and 120 % of control
same,T/C,"dose: 200.0 mg/kg/injection, schedule: Q01DX009 (ip), vehicle: Klucel (hydroxypropylcellulose) (HPC)",102 % of control and 122 % of control
same,T/C,"dose: 400.0 mg/kg/injection, schedule: Q01DX009 (ip), vehicle: Klucel (hydroxypropylcellulose) (HPC)",116 % of control
CCn1c2ccccc2c2cc(N=Nc3cc4cc5ccccc5cc4cc3N)ccc21,T/C,"dose: 100.0 mg/kg/injection, schedule: Q04DX003 (ip), vehicle: Klucel (hydroxypropylcellulose) (HPC)",101 % of control
same,T/C,"dose: 200.0 mg/kg/injection, schedule: Q04DX003 (ip), vehicle: Klucel (hydroxypropylcellulose) (HPC)",93 % of control
N#Cc1c(SCc2ccc(Cl)cc2)nsc1Nc1ccc(Cl)cc1,T/C,[1],96 % of control
same,T/C,[2],91 % of control
same,T/C,[3],92 % of control
